Measured values taken from patent publication US20260256794A1, “Oral Dynamine Formulations and Methods Therefor” (Ortho-Nutra, LLC, priority 2023, published 2026).

How the values were obtained:
[1] = test system: subjects; experiment: VAS-Sustained Energy; type: in vivo, human; parameters: VAS-Sustained Energy rating, Mean / VAS-Sustained Energy changes from baseline, Mean Difference ± SE / VAS-Sustained Energy Δ, Mean Difference ± SE / VAS-Sustained Energy area under the curve, Mean Difference ± SE / VAS-Sustained Energy area under the curve, Mean: scale not given here; conditions: for VAS-Sustained Energy Δ, effect size d / VAS-Sustained Energy Δ from 0 min, Mean / VAS-Sustained Energy Δ, Mean Difference ± SE: females; for VAS-Sustained Energy Δ, effect size d: vs placebo; for VAS-Sustained Energy Δ, Mean Difference ± SE: B vs A (placebo)
Protocol: (§1) The inventors have discovered various compositions and methods of improving various indices of neurological and neuroenergetic functions by administering 100 mg (once daily) dosages of DYNAMINE™ (dosage between 1.0 and 1.4 mg/kg) as described in the following:
(§2) All neuroenergetic tests as listed below were performed and data were collected after 0 and 4 days of assigned supplements (with acute effects also measured at day 4 over 180 minutes):
(§3) All VAS Measurement (Energy, Sustained Energy, Mental Stamina, Ability to Focus, Ability to Concentrate, Motivation to Accomplish Difficult Tasks, Drive, Vigor, Level of Positive Outlook, Mood, Feelings of Well-Being, Tolerate Stress); Day 0: Two tests were completed. The average of both scores was computed and this value was used in all statistical analysis. Day 4 (0 minutes after ingesting dose #4): Two tests were completed. The average of both scores was computed and this value was used in all statistical analysis. Day 4 (60, 120, and 180 minutes after ingesting dose #4): One test was completed at each time point.
(§4) Neuroenergic parameters are inherently subjective, nevertheless significant in human behavior and well-being. To allow for a standardization among different subjects, the following experiments were performed using a visual analog scale using anchor statements (lowest possible/highest possible) in which subjects were asked to rate their subjective experience with respect to the specific neuroenergic parameters tested.
VAS-Sustained Energy: In this subjective test, subjects were asked to rate their personal level of energy on a VAS scale using the prompt of “My level of sustained energy right now is . . . ” (with rating lowest possible to highest possible)”. Results were collected as noted above and Table 6 provides exemplary results for Day 0 versus Day 4 ratings, whereas Table 7 provides exemplary acute results measured at Day 4 over a duration of 180 minutes.

[2] = test system: subjects; experiment: VAS-Motivation; type: in vivo, human; parameters: VAS-Motivation rating, Mean / VAS-Motivation changes from baseline, Mean Difference ± SE / VAS-Motivation area under the curve, Mean Difference ± SE / VAS-Motivation area under the curve, Mean: scale not given here
Protocol: as §1, §2, §3, §4
VAS-Motivation: In this subjective test, subjects were asked to rate their personal level of energy on a VAS scale using the prompt of “My motivation to accomplish difficult tasks right now is . . . ” (with rating lowest possible to highest possible)”. Results were collected as noted above and Table 19 provides exemplary results for Day 0 versus Day 4 ratings, whereas Table 20 provides exemplary acute results measured at Day 4 over a duration of 180 minutes.

[3] = test system: subjects; experiment: VAS-Energy; type: in vivo, human; parameters: VAS-Energy rating, Mean / VAS-Energy changes from baseline, Mean Difference ± SE / VAS-Energy Δ, Mean Difference ± SE / VAS-Energy area under the curve, Mean Difference ± SE / VAS-Energy area under the curve, Mean: scale not given here; conditions: for VAS-Energy Δ, effect size d / VAS-Energy Δ from 0 min, Mean / VAS-Energy Δ, Mean Difference ± SE: females; for VAS-Energy Δ, effect size d: vs placebo; for VAS-Energy Δ, Mean Difference ± SE: B vs A (placebo)
Protocol: as §1, §2, §3, §4
VAS-Energy: In this subjective test, subjects were asked to rate their personal level of energy on a VAS scale using the prompt of “My level of energy right now is . . . ” (with rating lowest possible to highest possible)”. Results were collected as noted above and Table 2 provides exemplary results for Day 0 versus Day 4 ratings, whereas Table 3 provides exemplary acute results measured at Day 4 over a duration of 180 minutes.

[4] = test system: subjects; experiment: Hemodynamics: systolic blood pressure; type: in vivo, human; conditions: for Systolic blood pressure changes from baseline, Mean Difference ± SE / Systolic blood pressure changes from baseline, effect size d: between groups (placebo)
Protocol: as §1
Hemodynamics Systolic Blood Pressure, Diastolic Blood Pressure, Heart Rate were taken Pre and Post Stroop Test on Day 0; Pre and Post Stroop Test after 4 Days of Supplementation 0, 60, 120, and 180 minutes after ingestion of 4th dose.
For hemodynamic parameters, systolic blood pressure, diastolic blood pressure, and heart rate were taken pre- and post-Stroop Test on Day 0, and pre- and post-Stroop Test after 4 Days of Supplementation 0, 60, 120, and 180 minutes after ingestion of 4th dose.

[5] = cited from earlier work
[6] = 100 mg once daily, Day 4, 0-180 min
[7] = 100 mg once daily, Day 4, 0-180 min, vs Group A (placebo)
[8] = 100 mg once daily, Day 4, 0 min after dose #4
[9] = 100 mg once daily, Day 4, 60 min-0 min, vs Group A (placebo)
[10] = 100 mg once daily, Day 4, 60 min after dose #4
[11] = 100 mg once daily, Day 4, 120 min-0 min, vs Group A (placebo)
[12] = 100 mg once daily, Day 4, 120 min after dose #4
[13] = 100 mg once daily, Day 4, 180 min-0 min, vs Group A (placebo)
[14] = 100 mg once daily, Day 4, 180 min after dose #4
[15] = 100 mg once daily, Day 4, 60 min
[16] = 100 mg once daily, Day 4, 120 min
[17] = 100 mg once daily, Day 4, 120 min, listed as B
[18] = 100 mg once daily, Day 4, 180 min
[19] = 100 mg once daily, Day 4, Δ @ 60 min
[20] = 100 mg once daily, Day 4, Δ @ 120 min
[21] = 100 mg once daily, Day 4, Δ @ 180 min
[22] = 100 mg once daily, Day 4, 60 min-0 min
[23] = 100 mg once daily, Day 4, 120 min-0 min
[24] = 100 mg once daily, Day 4, 180 min-0 min

COc1nc2c(c(=O)n1C)n(C)c(=O)n2C [methylliberine, 2-methoxy-1,7,9-trimethylpurine-6,8-dione]
VAS-Sustained Energy area under the curve, Mean [1, 6]: 1073 | VAS-Sustained Energy area under the curve, Mean Difference ± SE [1, 7]: 45.2 ± 41.7 | VAS-Sustained Energy area under the curve, effect size d [1, 7]: −0.13 | VAS-Sustained Energy rating, Mean [1, 8]: 5.7 | VAS-Sustained Energy changes from baseline, Mean Difference ± SE [1, 9]: 0.22 ± 0.22 | VAS-Sustained Energy changes from baseline, effect size d [1, 9]: 0.27 | VAS-Sustained Energy rating, Mean [1, 10]: 6.2 | VAS-Sustained Energy changes from baseline, Mean Difference ± SE [1, 11]: −0.11 ± 0.25 | VAS-Sustained Energy changes from baseline, effect size d [1, 11]: −0.11 | VAS-Sustained Energy rating, Mean [1, 12]: 6.3 | VAS-Sustained Energy changes from baseline, Mean Difference ± SE [1, 13]: 0.24 ± 0.23 | VAS-Sustained Energy changes from baseline, effect size d [1, 13]: 0.24 | VAS-Sustained Energy rating, Mean [1, 14]: 6.5 | VAS-Sustained Energy rating, Mean ([1]; Day 0 (before supplementation)): 5.6 | VAS-Sustained Energy Δ, effect size d [1, 15]: 0.86 | VAS-Sustained Energy Δ, effect size d [1, 16]: 0.62 | VAS-Sustained Energy Δ, effect size d [1, 17]: 0.03 | VAS-Sustained Energy Δ, effect size d [1, 18]: 0.62 | VAS-Sustained Energy Δ from 0 min, Mean [1, 19]: 0.85 | VAS-Sustained Energy Δ, Mean Difference ± SE [1, 19]: 0.74 ± 0.29 | VAS-Sustained Energy Δ from 0 min, Mean [1, 20]: 0.88 | VAS-Sustained Energy Δ, Mean Difference ± SE [1, 20]: 0.02 ± 0.35 | VAS-Sustained Energy Δ from 0 min, Mean [1, 21]: 1.28 | VAS-Sustained Energy Δ, Mean Difference ± SE [1, 21]: 0.72 ± 0.31 | VAS-Motivation area under the curve, Mean [2, 6]: 1113 | VAS-Motivation area under the curve, Mean Difference ± SE [2, 7]: 36.8 ± 37.4 | VAS-Motivation area under the curve, effect size d [2, 7]: 0.11 | VAS-Motivation rating, Mean [2, 8]: 5.7 | VAS-Motivation changes from baseline, Mean Difference ± SE [2, 9]: −0.07 ± 0.27 | VAS-Motivation changes from baseline, effect size d [2, 9]: −0.08 | VAS-Motivation rating, Mean [2, 10]: 6.2 | VAS-Motivation changes from baseline, Mean Difference ± SE [2, 11]: −0.25 ± 0.27 | VAS-Motivation changes from baseline, effect size d [2, 11]: −0.25 | VAS-Motivation rating, Mean [2, 12]: 6.2 | VAS-Motivation changes from baseline, Mean Difference ± SE [2, 13]: 0.53 ± 0.27 | VAS-Motivation changes from baseline, effect size d [2, 13]: 0.50 | VAS-Motivation rating, Mean [2, 14]: 6.6 | VAS-Motivation rating, Mean ([2]; Day 0 (before supplementation)): 5.8 | VAS-Energy area under the curve, Mean [3, 6]: 1115 | VAS-Energy area under the curve, Mean Difference ± SE [3, 7]: 49.6 ± 36.3 | VAS-Energy area under the curve, effect size d [3, 7]: 0.15 | VAS-Energy rating, Mean [3, 8]: 5.8 | VAS-Energy changes from baseline, Mean Difference ± SE [3, 9]: 0.24 ± 0.22 | VAS-Energy changes from baseline, effect size d [3, 9]: 0.28 | VAS-Energy rating, Mean [3, 10]: 6.2 | VAS-Energy changes from baseline, Mean Difference ± SE [3, 11]: −0.14 ± 0.27 | VAS-Energy changes from baseline, effect size d [3, 11]: −0.14 | VAS-Energy rating, Mean [3, 12]: 6.2 | VAS-Energy changes from baseline, Mean Difference ± SE [3, 13]: 0.28 ± 1.24 | VAS-Energy changes from baseline, effect size d [3, 13]: 0.28 | VAS-Energy rating, Mean [3, 14]: 6.5 | VAS-Energy rating, Mean ([3]; Day 0 (before supplementation)): 5.5 | VAS-Energy Δ, effect size d [3, 15]: 0.81 | VAS-Energy Δ, effect size d [3, 16]: 0.69 | VAS-Energy Δ, effect size d [3, 17]: −0.03 | VAS-Energy Δ, effect size d [3, 18]: 0.69 | VAS-Energy Δ from 0 min, Mean [3, 19]: 0.66 | VAS-Energy Δ, Mean Difference ± SE [3, 19]: 0.72 ± 0.23 | VAS-Energy Δ from 0 min, Mean [3, 20]: 0.42 | VAS-Energy Δ, Mean Difference ± SE [3, 20]: −0.03 ± 0.38 | VAS-Energy Δ from 0 min, Mean [3, 21]: 1.08 | VAS-Energy Δ, Mean Difference ± SE [3, 21]: 0.73 ± 1.11 | Systolic blood pressure, Mean ([4]; 100 mg once daily, Day 4, 0 min after 4th dose): 121.4 mm Hg | Systolic blood pressure changes from baseline, Mean Difference ± SE [4, 22]: 1.16 ± 2.57 mm Hg | Systolic blood pressure changes from baseline, effect size d [4, 22]: −0.12 | Systolic blood pressure, Mean ([4]; 100 mg once daily, Day 4, 60 min after 4th dose): 117.9 mm Hg | Systolic blood pressure changes from baseline, Mean Difference ± SE [4, 23]: −0.60 ± 2.22 mm Hg | Systolic blood pressure changes from baseline, effect size d [4, 23]: 0.06 | Systolic blood pressure, Mean ([4]; 100 mg once daily, Day 4, 120 min after 4th dose): 120.6 mm Hg | Systolic blood pressure changes from baseline, Mean Difference ± SE [4, 24]: 2.40 ± 2.25 mm Hg | Systolic blood pressure changes from baseline, effect size d [4, 24]: −0.27 | Systolic blood pressure, Mean ([4]; 100 mg once daily, Day 4, 180 min after 4th dose): 120.0 mm Hg | Systolic blood pressure, Mean ([4]; Day 0 (before supplementation)): 118.6 mm Hg | effect on pharmacokinetics of caffeine ([5]; methylliberine 100 mg administered in combination with caffeine 150 mg): will alter pharmacokinetic effects of caffeine | half-life ([5]; oral, 25 mg and 100 mg, healthy subjects): 1 to 1.4 h
